Measured values published in patent publication US9018214B2, “Bicyclic heterocycle compounds and their uses in therapy” (Astex Therapeutics Limited, priority 2011, dated 2015).
Structures can show the parent of a compound that is named as a salt. Where two headings read alike, the source gives them in different places.

Key:
[1] = biological target: BIR3 domain of human XIAP (residues 252-350) (Homo sapiens (Human), UniProt P98170); assay: XIAP in vitro competitive displacement binding assay (fluorescence polarization); conditions: for inhibition at 0.04 µM: 1 h, read-out: IC50 or PI Xiap: PI; for IC50: read-out: IC50 or PI Xiap: IC50
[2] = test system: EVSA-T (human breast carcinoma); assay: Anti-proliferative activity, Alamar Blue assay, EVSA-T; assay type: cell-based; conditions: Homo sapiens, EVSA-T, read-out: EVSA-T prolif (EC50)
[3] = biological target: BIR3 domain of human cIAP-1 (residues 267-363) (Homo sapiens (Human), UniProt Q13490); assay: cIAP-1 in vitro competitive displacement binding assay (fluorescence polarization; Probe A AVPIK(5&6FAM)-amide or Probe B AbuRPFK(5&6FAM)-amide); conditions: for inhibition at […]: 3 h, read-out: IC50 or PI cIAP1: PI
[4] = Probe B AbuRPFK(5&6FAM)-amide, read-out: IC50 or PI cIAP1: IC50

Compound	inhibition at 0.04 µM [1] [%]	EC50 ([2]; 72 hours, Alamar Blue) [nM]	inhibition at […] [3] [%]	IC50 [1] [nM]	IC50 [3] [nM]	IC50 [3, 4] [nM]	inhibition at 0.04 µM ([1]; @ 0.04 μM) [%]	inhibition at […] ([3]; Probe B, @ 0.012 μM) [%]	EC50 ([2]; 72 h) [nM]
C[C@@H]1CN(CC(=O)N2CC(C)(C)c3cnc(Cc4ccccc4)cc32)[C@@H](CN2CCCC2=O)CN1 [Example 172, 1-{[(2R,5R)-1-(2-{6-Benzyl-3,3-dimethyl-1H,2H,3H-pyrrolo[3,2-c]pyridin-1-yl}-2-oxoethyl)-5-methylpiperazin-2-yl]methyl}pyrrolidin-2-one dihydrochloride]	58	56	78	–	–	–	–	–	–
C[C@@H]1CN(CC(=O)N2CC(C)(C)c3cnc(C(F)(F)c4ccccc4)cc32)[C@@H](CN2CCCC2=O)CN1 [Example 173, 1-{[(2R,5R)-1-(2-{6-[Difluoro(phenyl)methyl]-3,3-dimethyl-1H,2H,3H-pyrrolo[3,2-c]pyridin-1-yl}-2-oxoethyl)-5-methylpiperazin-2-yl]methyl}pyrrolidin-2-one dihydrochloride]	73	36	80	–	–	–	–	–	–
COC[C@H]1CN[C@H](C)CN1CC(=O)N1C[C@](C)(c2cc(C)no2)c2ccc(Cc3ccccc3)cc21 [Example 174, 1-[(3R)-6-Benzyl-3-methyl-3-(3-methyl-1,2-oxazol-5-yl)-2,3-dihydro-1H-indol-1-yl]-2-[(2R,5R)-2-(methoxymethyl)-5-methylpiperazin-1-yl]ethan-1-one hydrochloride]	–	2500	–	760	< 1000	190	–	–	–
COC[C@H]1CN[C@H](C)CN1CC(=O)N1C[C@@](C)(c2cc(C)no2)c2ccc(Cc3ccccc3)cc21 [Example 175, 1-[(3S)-6-Benzyl-3-methyl-3-(3-methyl-1,2-oxazol-5-yl)-2,3-dihydro-1H-indol-1-yl]-2-[(2R,5R)-2-(methoxymethyl)-5-methylpiperazin-1-yl]ethan-1-one hydrochloride]	–	200	–	110	< 1000	11	–	–	–
C[C@@H]1CN(CC(=O)N2CC(C)(C)c3cnc(C(F)(F)c4ccccc4)cc32)[C@@H](Cn2cc(F)cn2)CN1 [Example 176, 1-{6-[Difluoro(phenyl)methyl]-3,3-dimethyl-1H,2H,3H-pyrrolo[3,2-c]pyridin-1-yl}-2-[(2R,5R)-2-[(4-fluoro-1H-pyrazol-1-yl)methyl]-5-methylpiperazin-1-yl]ethan-1-one hydrochloride]	–	26	–	–	–	–	52	70	–
C[C@@H]1CN(CC(=O)N2CC(C)(C)c3cnc(Oc4ccccc4Cl)cc32)[C@@H](Cn2cc(F)cn2)CN1 [Example 177, 1-[6-(2-Chlorophenoxy)-3,3-dimethyl-1H,2H,3H-pyrrolo[3,2-c]pyridin-1-yl]-2-[(2R,5R)-2-[(4-fluoro-1H-pyrazol-1-yl)methyl]-5-methylpiperazin-1-yl]ethan-1-one hydrochloride]	–	270	–	49	< 1000	18	–	–	–
C[C@@H]1CN(CC(=O)N2CC(C)(C)c3cnc(C(F)(F)c4ccccc4)cc32)[C@@H](C(=O)N2CCOCC2)CN1 [Example 178, 1-{6-[Difluoro(phenyl)methyl]-3,3-dimethyl-1H,2H,3H-pyrrolo[3,2-c]pyridin-1-yl}-2-[(2R,5R)-5-methyl-2-[(morpholin-4-yl)carbonyl]piperazin-1-yl]ethan-1-one dihydrochloride]	50	67	60	–	–	–	–	–	–
C[C@@H]1CN(CC(=O)N2CC(C)(C)c3cnc(Cc4ccc(F)cc4F)cc32)[C@@H](Cn2cccnc2=O)CN1 [Example 185, 1-{[(2R,5R)-1-(2-{6-[(2,4-Difluorophenyl)methyl]-3,3-dimethyl-1H,2H,3H-pyrrolo[3,2-c]pyridin-1-yl}-2-oxoethyl)-5-methylpiperazin-2-yl]methyl}-1,2-dihydropyrimidin-2-one dihydrochloride]	–	–	94	77	–	–	–	–	10
CCC(F)(F)c1cnc2c(c1)N(C(=O)CN1C[C@@H](C)NC[C@@H]1CN1CCOC[C@H]1C)CC2(C)C [Example 186, 1-[6-(1,1-Difluoropropyl)-3,3-dimethyl-1H,2H,3H-pyrrolo[3,2-b]pyridin-1-yl]-2-[(2R,5R)-5-methyl-2-{[(3R)-3-methylmorpholin-4-yl]methyl}piperazin-1-yl]ethan-1-one, a hydrochloride salt]	–	25	–	–	–	11	59	–	–
C[C@@H]1CN(CC(=O)N2CC(C)(C)c3cnc(Oc4ccccc4Cl)cc32)[C@@H](CN2CCOC2=O)CN1 [Example 189, 3-{[(2R,5R)-1-{2-[6-(2-Chlorophenoxy)-3,3-dimethyl-1H,2H,3H-pyrrolo[3,2-c]pyridin-1-yl]-2-oxoethyl}-5-methylpiperazin-2-yl]methyl}-1,3-oxazolidin-2-one hydrochloride]	–	190	–	–	–	14	70	–	–
C[C@@H]1CN(CC(=O)N2CC(C)(C)c3cnc(Cc4ccc(F)cc4F)cc32)[C@@H](CN2CCOCC2=O)CN1 [Example 191, 4-{[(2R,5R)-1-(2-{6-[(2,4-Difluorophenyl)methyl]-3,3-dimethyl-1H,2H,3H-pyrrolo[3,2-c]pyridin-1-yl}-2-oxoethyl)-5-methylpiperazin-2-yl]methyl}morpholin-3-one hydrochloride]	–	17	–	47	–	–	–	94	–
C[C@@H]1CN(CC(=O)N2CC(C)(C)c3cnc(Cc4ccc(F)cc4F)cc32)[C@@H](CN2CCCCC2=O)CN1 [Example 192, 1-{[(2R,5R)-1-(2-{6-[(2,4-Difluorophenyl)methyl]-3,3-dimethyl-1H,2H,3H-pyrrolo[3,2-c]pyridin-1-yl}-2-oxoethyl)-5-methylpiperazin-2-yl]methyl}piperidin-2-one hydrochloride]	–	8.8	–	58	–	–	–	95	–
C[C@@H]1CN(CC(=O)N2CC(C)(C)c3cnc(Cc4ccc(F)cc4F)cc32)[C@@H](Cn2ccccc2=O)CN1 [Example 193, 1-{[(2R,5R)-1-(2-{6-[(2,4-Difluorophenyl)methyl]-3,3-dimethyl-1H,2H,3H-pyrrolo[3,2-c]pyridin-1-yl}-2-oxoethyl)-5-methylpiperazin-2-yl]methyl}-1,2-dihydropyridin-2-one dihydrochloride]	44	16	98	–	–	–	–	–	–
C[C@@H]1CN(CC(=O)N2CC(C)(C)c3cnc(Cc4ccc(F)cc4F)cc32)[C@@H](Cn2ncccc2=O)CN1 [Example 194, 2-{[(2R,5R)-1-(2-{6-[(2,4-Difluorophenyl)methyl]-3,3-dimethyl-1H,2H,3H-pyrrolo[3,2-c]pyridin-1-yl}-2-oxoethyl)-5-methylpiperazin-2-yl]methyl}-2,3-dihydropyridazin-3-one dihydrochloride]	–	–	99	55	–	–	–	–	9.8
C[C@@H]1CN(CC(=O)N2CC(C)(C)c3cnc(Cc4ccc(F)cc4F)cc32)[C@@H](Cn2ccncc2=O)CN1 [Example 195, 1-{[(2R,5R)-1-(2-{6-[(2,4-Difluorophenyl)methyl]-3,3-dimethyl-1H,2H,3H-pyrrolo[3,2-c]pyridin-1-yl}-2-oxoethyl)-5-methylpiperazin-2-yl]methyl}-1,2-dihydropyrazin-2-one dihydrochloride]	–	–	96	67	–	–	–	–	36
